# Counter-ions that a name gives are not always drawn.
# Experiments:
# [1] = target: T1, cMET enzyme (amino acids 1023-1360) (Homo sapiens, UniProt P08581); assay: Determination of inhibition of cMET (capillary electrophoresis, phosphorylated peptide product); type: biochemical; details: 1.2 nM cMET, 50 μM ATP, 2 μM FL-2 peptide, 2 hours room temperature
# T1 construct: The cMET enzyme (amino acids 1023-1360) nominally at 24 μM was held at −80° C. until use; His tag (N, cleaved yes); made in house; host or cells: Sf9 cells
# MKN45 = assay: Inhibition of cell viability (MTS), MKN45; type: cell-based; details: 96 hours incubation
# In short: (§1)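 Cells seeded at 2,000-7,500/well, attached ~24 h, then treated in duplicate with 1:2.5 serial dilutions at 0.5% final DMSO. Viability by MTS; EC50 from non-linear fit after background correction and normalisation to DMSO. MKN45 and EBC1 are cMET-dependent; A549 serves as negative control.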
# EBC1 = assay: Inhibition of cell viability (MTS), EBC1; type: cell-based; details: 96 hours incubation
# In short: as §1
# A549 = assay: Inhibition of cell viability (MTS), A549 (negative control line); type: cell-based; details: A549 cells (negative control), 96 hours incubation
# In short: as §1
# [2] = Homo sapiens, MKN-45, 96 h, MKN45 cells
# [3] = Homo sapiens, EBC-1, 96 h, EBC1 cells
# T1 sequence (P08581 1023-1360): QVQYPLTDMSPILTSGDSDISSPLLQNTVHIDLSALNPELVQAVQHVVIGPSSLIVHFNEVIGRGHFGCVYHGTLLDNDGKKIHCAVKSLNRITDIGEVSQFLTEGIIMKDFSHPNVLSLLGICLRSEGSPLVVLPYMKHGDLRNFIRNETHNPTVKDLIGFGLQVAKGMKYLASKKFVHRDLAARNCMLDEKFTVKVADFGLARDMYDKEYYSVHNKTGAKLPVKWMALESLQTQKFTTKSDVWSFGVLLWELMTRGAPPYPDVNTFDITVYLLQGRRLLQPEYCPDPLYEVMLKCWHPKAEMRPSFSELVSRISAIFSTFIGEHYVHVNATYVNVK
Compound,IC50 [1],EC50 (MKN45; [2]),"EC50 (A549; Homo sapiens, A549, 96 h)",EC50 (MKN45; MKN45 cells),EC50 (A549),EC50 (EBC1; [3]),"EC50 (MKN45; Homo sapiens, MKN-45, MKN45 cells)","EC50 (EBC1; Homo sapiens, EBC-1, EBC1 cells)",EC50 (A549; Homo sapiens),EC50 (EBC1; EBC1 cells)
"O=C(Nc1cn2nc(C(F)(F)c3nnc4ccc(-c5cnoc5)cn34)ccc2n1)C1CC1 [Compound 46, N-(6-(difluoro(6-(isoxazol-4-yl)-[1,2,4]triazolo[4,3-a]pyridin-3-yl)methyl)imidazo[1,2-b]pyridazin-2-yl)cyclopropanecarboxamide]",30 to 59 nM,60 to 100 nM,> 50000 nM,–,–,60 to 100 nM,–,–,–,–
"O=C(Nc1cn2nc(Sc3nnc4ccc(Cl)cn34)ccc2n1)C1CC1 [Compound 9, N-(6-(6-chloro-[1,2,4]triazolo[4,3-a]pyridin-3-ylthio)imidazo[1,2-b]pyridazin-2-yl)cyclopropanecarboxamide]",60 to 100 nM,250 to 630 nM,8000 to 25000 nM,–,–,100 to 199 nM,–,–,–,–
"COCc1nc(-c2ccc3nnc(Sc4ccc5nc(NC(=O)C6CC6)cn5n4)n3c2)no1 [Compound 39, N-(6-(6-(5-(methoxymethyl)-1,2,4-oxadiazol-3-yl)-[1,2,4]triazolo[4,3-a]pyridin-3-ylthio)imidazo[1,2-b]pyridazin-2-yl)cyclopropanecarboxamide]",60 to 100 nM,100 to 249 nM,600 to 1600 nM,–,–,35 to 99 nM,–,–,–,–
"COCCOCn1cc(-c2ccc3nnc(Sc4ccc5nc(NC(=O)C6CC6)cn5n4)n3c2)cn1 [Compound 29, N-(6-(6-(1-((2-methoxyethoxy)methyl)-1H-pyrazol-4-yl)-[1,2,4]triazolo[4,3-a]pyridin-3-ylthio)imidazo[1,2-b]pyridazin-2-yl)cyclopropanecarboxamide]",60 to 100 nM,–,–,–,–,–,< 100 nM,35 to 99 nM,> 50000 nM,–
"CC(c1ccc2nc(NC(=O)C3CC3)cn2n1)c1nnc2ccc(-c3ccc(F)cc3)cn12 (stereo not shown) [Compound 55, N-(6-(1-(6-(4-fluorophenyl)-[1,2,4]triazolo[4,3-a]pyridin-3-yl)ethyl)imidazo[1,2-b]pyridazin-2-yl)cyclopropanecarboxamide]",< 30 nM,< 30 nM,> 50000 nM,–,–,< 30 nM,–,–,–,–
O=C(Nc1cn2nc(Sc3nnc4ccccn34)ccc2n1)C1CC1 [3 (HCl Salt)],> 100 nM,–,8000 to 25000 nM,250 to 630 nM,–,100 to 199 nM,–,–,–,–
"C=C(C)c1ccc2nnc(Sc3ccc4nc(NC(=O)C5CC5)cn4n3)n2c1 [Compound 25, N-(6-(6-(prop-1-en-2-yl)-[1,2,4]triazolo[4,3-a]pyridin-3-ylthio)imidazo[1,2-b]pyridazin-2-yl)cyclopropanecarboxamide]",< 30 nM,< 100 nM,8000 to 25000 nM,–,–,< 35 nM,–,–,–,–
O=C(Nc1cn2nc(Cn3nnc4ccc(-c5cnn(CCO)c5)cc43)ccc2n1)C1CC1 [Compound 24],60 to 100 nM,100 to 249 nM,> 50000 nM,–,–,35 to 99 nM,–,–,–,–
O=C(Nc1cn2nc(Cn3nnc4ccc(-c5cccc(F)c5)cc43)ccc2n1)C1CC1 [Compound 14],30 to 59 nM,250 to 630 nM,600 to 1600 nM,–,–,100 to 199 nM,–,–,–,–
"CC(c1ccc2nc(NC(=O)C3CC3)cn2n1)c1nnc2ccc(-c3cnn(C)c3)cn12 (stereo not shown) [49 (TFA Salt), N-(6-(1-(6-(1-methyl-1H-pyrazol-4-yl)-[1,2,4]triazolo[4,3-a]pyridin-3-yl)ethyl)imidazo[1,2-b]pyridazin-2-yl)cyclopropanecarboxamide]",30 to 59 nM,–,–,60 to 100 nM,> 50000 nM,–,–,–,–,60 to 100 nM
CS(=O)(=O)c1cncc(-c2ccc3nnn(Cc4ccc5nc(NC(=O)C6CC6)cn5n4)c3c2)c1 [Compound 21],> 100 nM,> 630 nM,> 50000 nM,–,–,> 200 nM,–,–,–,–

# Now from value to molecule, other results behind:
IC50 [1],EC50 (MKN45; [2]),"EC50 (A549; Homo sapiens, A549, 96 h)",EC50 (MKN45; MKN45 cells),EC50 (A549),Compound,EC50 (EBC1; [3]),"EC50 (MKN45; Homo sapiens, MKN-45, MKN45 cells)","EC50 (EBC1; Homo sapiens, EBC-1, EBC1 cells)",EC50 (A549; Homo sapiens),EC50 (EBC1; EBC1 cells)
< 30 nM,< 30 nM,> 50000 nM,–,–,"COCCOc1ccc(-c2ccc3nnc(C(F)(F)c4ccc5nc(NC(=O)C6CC6)cn5n4)n3c2)cc1 [Compound 91, N-(6-(difluoro(6-(4-(2-methoxyethoxy)phenyl)-[1,2,4]triazolo[4,3-a]pyridin-3-yl)methyl)imidazo[1,2-b]pyridazin-2-yl)cyclopropanecarboxamide]",< 30 nM,–,–,–,–
< 30 nM,60 to 100 nM,> 50000 nM,–,–,"CC(c1ccc2nc(NC(=O)C3CC3)cn2n1)c1nnc2ccc(-c3ccc(S(C)(=O)=O)cc3)cn12 (stereo not shown) [Compound 60, N-(6-(1-(6-(4-(methylsulfonyl)phenyl)-[1,2,4]triazolo[4,3-a]pyridin-3-yl)ethyl)imidazo[1,2-b]pyridazin-2-yl)cyclopropanecarboxamide]",60 to 100 nM,–,–,–,–
30 to 59 nM,60 to 100 nM,> 50000 nM,–,–,"COc1ccc(-c2ccc3nnc(Sc4ccc5nc(NC(=O)C6CC6)cn5n4)n3c2)cn1 [Compound 102, N-(6-(6-(6-methoxypyridin-3-yl)-[1,2,4]triazolo[4,3-a]pyridin-3-ylthio)imidazo[1,2-b]pyridazin-2-yl)cyclopropanecarboxamide]",30 to 59 nM,–,–,–,–
< 30 nM,< 30 nM,> 50000 nM,–,–,"CS(=O)(=O)c1ccc(-c2ccc3nnc(C(F)(F)c4ccc5nc(NC(=O)C6CC6)cn5n4)n3c2)cc1 [Compound 85, N-(6-(difluoro(6-(4-(methylsulfonyl)phenyl)-[1,2,4]triazolo[4,3-a]pyridin-3-yl)methyl)imidazo[1,2-b]pyridazin-2-yl)cyclopropanecarboxamide]",< 30 nM,–,–,–,–
< 30 nM,< 30 nM,5000 to 8000 nM,–,–,"Cc1csc(-c2ccc3nnc(C(C)c4ccc5nc(NC(=O)C6CC6)cn5n4)n3c2)c1 (stereo not shown) [Compound 62, N-(6-(1-(6-(4-methylthiophen-2-yl)-[1,2,4]triazolo[4,3-a]pyridin-3-yl)ethyl)imidazo[1,2-b]pyridazin-2-yl)cyclopropanecarboxamide]",< 30 nM,–,–,–,–
< 30 nM,< 30 nM,> 50000 nM,–,–,"COc1ccc(-c2ccc3nnc(C(C)c4ccc5nc(NC(=O)C6CC6)cn5n4)n3c2)cc1 (stereo not shown) [Compound 56, N-(6-(1-(6-(4-methoxyphenyl)-[1,2,4]triazolo[4,3-a]pyridin-3-yl)ethyl)imidazo[1,2-b]pyridazin-2-yl)cyclopropanecarboxamide]",< 30 nM,–,–,–,–
< 30 nM,< 30 nM,8000 to 25000 nM,–,–,"CC(c1ccc2nc(NC(=O)C3CC3)cn2n1)c1nnc2ccc(-c3cccc(N(C)C)c3)cn12 (stereo not shown) [Compound 73, N-(6-(1-(6-(3-(dimethylamino)phenyl)-[1,2,4]triazolo[4,3-a]pyridin-3-yl)ethyl)imidazo[1,2-b]pyridazin-2-yl)cyclopropanecarboxamide]",< 30 nM,–,–,–,–
< 30 nM,< 30 nM,> 50000 nM,–,–,"O=C(Nc1cn2nc(C(F)(F)c3nnc4ccc(-c5cn[nH]c5)cn34)ccc2n1)C1CC1 [Compound 92, N-(6-((6-(1H-pyrazol-4-yl)-[1,2,4]triazolo[4,3-a]pyridin-3-yl)difluoromethyl)imidazo[1,2-b]pyridazin-2-yl)cyclopropanecarboxamide]",< 30 nM,–,–,–,–
< 30 nM,< 30 nM,> 50000 nM,–,–,"COc1cccc(-c2ccc3nnc(C(F)(F)c4ccc5nc(NC(=O)C6CC6)cn5n4)n3c2)c1 [Compound 76, N-(6-(difluoro(6-(3-methoxyphenyl)-[1,2,4]triazolo[4,3-a]pyridin-3-yl)methyl)imidazo[1,2-b]pyridazin-2-yl)cyclopropanecarboxamide]",< 30 nM,–,–,–,–
< 30 nM,100 to 249 nM,> 50000 nM,–,–,"CC(c1ccc2nc(NC(=O)C3CC3)cn2n1)c1nnc2ccc(-c3cccc(S(C)(=O)=O)c3)cn12 (stereo not shown) [Compound 59, N-(6-(1-(6-(3-(methylsulfonyl)phenyl)-[1,2,4]triazolo[4,3-a]pyridin-3-yl)ethyl)imidazo[1,2-b]pyridazin-2-yl)cyclopropanecarboxamide]",60 to 100 nM,–,–,–,–
< 30 nM,< 30 nM,8000 to 25000 nM,–,–,"COc1ccc(-c2ccc3nnc(C(F)(F)c4ccc5nc(NC(=O)C6CC6)cn5n4)n3c2)cc1 [Compound 75, N-(6-(difluoro(6-(4-methoxyphenyl)-[1,2,4]triazolo[4,3-a]pyridin-3-yl)methyl)imidazo[1,2-b]pyridazin-2-yl)cyclopropanecarboxamide]",< 30 nM,–,–,–,–
30 to 59 nM,< 30 nM,> 50000 nM,–,–,"COc1ccc(-c2ccc3nnc(C(F)(F)c4ccc5nc(NC(=O)C6CC6)cn5n4)n3c2)cn1 [Compound 86, N-(6-(difluoro(6-(6-methoxypyridin-3-yl)-[1,2,4]triazolo[4,3-a]pyridin-3-yl)methyl)imidazo[1,2-b]pyridazin-2-yl)cyclopropanecarboxamide]",< 30 nM,–,–,–,–
< 30 nM,< 30 nM,> 50000 nM,–,–,"COc1cccc(-c2ccc3nnc(C(C)c4ccc5nc(NC(=O)C6CC6)cn5n4)n3c2)c1 (stereo not shown) [Compound 61, N-(6-(1-(6-(3-methoxyphenyl)-[1,2,4]triazolo[4,3-a]pyridin-3-yl)ethyl)imidazo[1,2-b]pyridazin-2-yl)cyclopropanecarboxamide]",< 30 nM,–,–,–,–
< 30 nM,< 30 nM,> 50000 nM,–,–,"CC(c1ccc2nc(NC(=O)C3CC3)cn2n1)c1nnc2ccc(-c3ccc(F)c(C#N)c3)cn12 (stereo not shown) [Compound 71, N-(6-(1-(6-(3-cyano-4-fluorophenyl)-[1,2,4]triazolo[4,3-a]pyridin-3-yl)ethyl)imidazo[1,2-b]pyridazin-2-yl)cyclopropanecarboxamide]",< 30 nM,–,–,–,–

# From patent US8178534B2, “cMET inhibitors” (Takeda Pharmaceutical Company Limited, priority 2008, dated 2012)
